Literature values as cited in patent publication US20240417323A1, “BUBBLE-CONTAINING GYPSUM SLURRY” (KAO CORPORATION, priority 2022, published 2024).

Conditions: 1-octanol/water; measured value if any, otherwise C log P calculated by C LOG P v 4.01

Log P | SMILES
1.57 | CCC(C)C(C)O (centres unmarked) [3-methyl-2-pentanol]
1.78 | CCCCCC=O [hexanal]
1.75 | CC(C)CCCO [4-methyl-1-pentanol]
1.75 | CCC(C)CCO (centres unmarked) [3-methyl-1-pentanol]
0.71 | OC1CCCC1 [cyclopentanol]
2.62 | CCCCCCCO [Example 1-heptanol, 1-heptanol]
0.1 | COC [dimethyl ether]
1.52 | CC(C)OC(C)C [diisopropyl ether]
1.57 | CCC(C)(C)CO [2,2-dimethyl-1-butanol]
1.75 | CCCC(C)CO (centres unmarked) [2-methyl-1-pentanol]
1.57 | CCC(C)(O)CC [3-methyl-3-pentanol]
1.57 | CCCC(C)(C)O [2-methyl-2-pentanol]
0.8 | CCCCOC(=O)C(C)O (centres unmarked) [butyl lactate]
1.28 | CC(C)C(C)O (centres unmarked) [3-methyl-2-butanol]
2.03 | CCCCOCC [butyl ethyl ether]
2.73 | CC(C)CCCCCO [6-methyl-1-heptanol]
1.57 | CCC(O)C(C)C (centres unmarked) [2-methyl-3-pentanol]
1.75 | CCC(CC)CO [2-ethyl-1-butanol]
0.88 | CCCC=O [butanal]
1.57 | CC(C)CC(C)O (centres unmarked) [4-methyl-2-pentanol]
